# Laboratory results from patent publication US5424205A, “Amyloidin protease and uses thereof” (Athena Neurosciences, Inc., priority 1993, dated 1995).
# Like-named read-outs stand apart in the source and are kept apart here. Starred links: 1 amine or outer side, 2 acyl side, 3 side chain; linkers in the order of their positions; H or OH if unused. Residues, ends and D or L forms follow the SMILES beside them. *: point of attachment. pNA = O=[N+]([O-])c1ccc(N*)cc1; Suc = O=C(CCC(=O)[*:2])[*:1]; MeOSuc = COC(=O)CCC(=O)*; Cbz = O=C(OCc1ccccc1)*; Boc = CC(C)(C)OC(=O)*
# B1: rat mast cell protease I (RMCP I) (protein)
# chain: IIGGVESRPHSRPYMAHLEITTERGYKATCGGFLVTRQFVMTAAHCKGRETTVTLGVHDVSKTESTQQKIKVEKQIVHPNYNFYSNLHDIMLLKLQKKAKVTPAVDVIPLPQPSDFLKPGKMCRAAGWGQTGVTKPTSNTLREVKQRIMDKEACKNYFHYNYNFQVCVGSPRKIRSAYKGDSGGPLVCAGVAHGIVSYGRGDAKPPAVFTRISPYVPWINKVIKGKDLTSLSLHESESPS
# Experiments:
# [1] = target: T1, amyloidin (Homo sapiens, UniProt P52888); experiment: Cleavage of short peptide para-nitroanilide substrates by amyloidin (A405); format: biochemical; settings: pH 7.5; up to 2 hours
# T1 construct: from tissue; a purification from blood is also described
# T1 sequence (P52888 whole entry): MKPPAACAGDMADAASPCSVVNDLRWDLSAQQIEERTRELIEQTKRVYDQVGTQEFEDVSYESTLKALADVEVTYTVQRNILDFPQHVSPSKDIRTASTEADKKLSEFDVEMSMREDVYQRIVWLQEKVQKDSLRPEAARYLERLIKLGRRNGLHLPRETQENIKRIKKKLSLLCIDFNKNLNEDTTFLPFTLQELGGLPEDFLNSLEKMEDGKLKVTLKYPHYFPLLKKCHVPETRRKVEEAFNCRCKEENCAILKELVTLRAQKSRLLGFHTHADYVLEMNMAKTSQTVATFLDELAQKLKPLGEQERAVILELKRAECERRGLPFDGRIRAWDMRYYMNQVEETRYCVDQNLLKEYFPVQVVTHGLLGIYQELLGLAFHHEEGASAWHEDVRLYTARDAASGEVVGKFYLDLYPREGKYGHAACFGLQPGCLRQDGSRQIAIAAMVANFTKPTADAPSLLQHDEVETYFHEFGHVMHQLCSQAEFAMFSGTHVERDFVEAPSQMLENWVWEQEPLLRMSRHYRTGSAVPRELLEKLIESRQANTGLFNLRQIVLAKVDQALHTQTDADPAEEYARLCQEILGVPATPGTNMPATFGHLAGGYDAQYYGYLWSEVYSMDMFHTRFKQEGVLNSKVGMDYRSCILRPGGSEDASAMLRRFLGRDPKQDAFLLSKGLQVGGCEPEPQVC
# [2] = target: human amyloidin protease (human)
# [3] = tested on: brain protease; settings: TLC; 125I-labelled peptide; Abraham et al; cited from earlier work
# [4] = target: T1, amyloidin; experiment: Inhibition of amyloidin by various inhibitors (APP592-601 peptide cleavage); format: biochemical
# [5] = target: T1, amyloidin; experiment: Cleavage of APP592-601 and its analogs by amyloidin (subsite requirements); format: biochemical; settings: pH 7.5, CaCl2, 37° C., 60 min; RP-HPLC
# Procedure: Routinely, 25 ul of enzyme solution were mixed with 10 ul of 1M Tris, pH 7.5, 5 ul 10 mM CaCl2, and 10 ul of a 2 mg/ml Stock solution of APP592-601 in water, or 20 mM Tris, pH 7.5, 0.15M NaCl, in 1.5 ml polypropylene microfuge tubes. The reaction mixtures were incubated for 60 min at 37° C. in a water bath, then quenched with 450 ul ice-cold ethanol, and incubated on ice for a further 20 min. They were centrifuged at 15,000×g for 10 min, and the supernatants transferred to new polypropylene tubes and dried under vacuum. The residue was dissolved in 0.5 ml water, centrifuged at 15,000×g for 5 min, and 200 ul of the supernatant injected onto a 0.46×30 cm Vydac C18 column equilibrated with 0.1% trifluoroacetic acid in water, at 1 ml/min. The column was immediately eluted with a linear gradient to 40% acetronitrile in 0.1% trifluoroacetic acid in water, over 20 minutes. The elution was monitored at 220 nm, and peaks were individually collected, hydrolyzed in 6N HCl at […] for 2 hr, then subjected to quantitative amino-acid analysis in an Applied Biosystems amino-acid analyzer. Once identified, times of elution were used to identify cleavage patterns.
# In order to test the subsite requirements of amyloidin in the APP592-601 cleavage assay, analogs of this peptide substrate were synthesized.
# Following synthesis and purification, the peptides were then incubated with amyloidin under conditions identical to those developed with APP592-601. The underlined residues designated changes from the native peptide sequence while the arrows indicate peptide cleavage sites. [drawing 5]
# [6] = target: APP592-601 (N-acetyl-Ser-Glu-Val-Lys-Met-Asp-Ala-Glu-Phe-Arg)
# [7] = target: Suc-AAPF-pNA
# [8] = target: Suc-AAPM-pNA
# [9] = target: Z-RK-pNA
# [10] = target: Ac-AD-pNA
# [11] = target: Z-AA-pNA
# [12] = target: MeS-AAPV-pNA
# [13] = target: Boc-AAd-Pna
# [14] = target: Z-RR-pNA
# [15] = target: Ac-EVKM-PNA
# [16] = target: T1, amyloidin; experiment: Cleavage of full-length APP from baculovirus cells by amyloidin; format: biochemical; settings: certain preliminary conditions
# [17] = target: soybean trypsin inhibitor (Sigma Chemicals) immobilized on CH-Sepharose; experiment: affinity column of immobilized soybean trypsin inhibitor; activity measured in the flow-through
molecule,measurement,setting,value
"N=C(N)NCCC[C@H](NC(=O)OCc1ccccc1)C(=O)N[C@@H](CCCNC(=N)N)C(=O)Nc1ccc([N+](=O)[O-])cc1 [Z-RR-pNA, benzyloxycarbonyl arginylarginyl-] (Cbz-Arg-Arg-pNA)",cleavage of p-NA substrate by amyloidin (increase in A405),[1],0
α1-proteinase inhibitor,% Control Activity (cleavage of APP592-601) (% control activity),[2],98
HSEVKMDAEF,sites of cleavage by brain protease,[3],"primarily at three sites, between the Lys-Met, Met-Asp, and Asp-Ala, with some cleavage obtained at His-Ser"
"COC(=O)CCC(=O)N[C@@H](C)C(=O)N[C@@H](C)C(=O)N1CCC[C@H]1C(=O)N[C@H](C(=O)Nc1ccc([N+](=O)[O-])cc1)C(C)C [MeS-AAPV-pNA, Methoxysuccinylalanyl-alanyl-prolyl-valyl-] (MeOSuc-AAPV-pNA)",cleavage of p-NA substrate by amyloidin (increase in A405),[1],0
α1-antichymotrypsin,% Control Activity (cleavage of APP592-601) (% control activity),[2],121
"c1cnc2c(c1)ccc1cccnc12 [1,10-phen., 1,10phenanthroline]",remaining activity at 100 µM,"[4]; assay conc. 0.1 mM, stock in DMSO, 30 min pre-incubation, room temperature, read-out: % Control Activity",75%
same,inhibitory effect on amyloidin,[4]; in words,only weakly inhibitory
"CSCC[C@H](NC(=O)[C@H](CCCCN)NC(=O)[C@@H](NC(=O)[C@H](CCC(=O)O)NC(C)=O)C(C)C)C(=O)Nc1ccc([N+](=O)[O-])cc1 [Ac-EVKM-PNA, acetylglutamyl-valyl-lysyl-methinyl-pNA] (Ac-EVKM-pNA)",cleavage of p-NA substrate by amyloidin (increase in A405),[1],0
CSCC[C@H](NC(=O)[C@H](CCC(N)=O)NC(=O)[C@@H](NC(=O)[C@H](CCC(=O)O)NC(=O)[C@H](CO)NC(C)=O)C(C)C)C(=O)N[C@@H](CC(=O)O)C(=O)N[C@@H](C)C(=O)N[C@@H](CCC(=O)O)C(=O)N[C@@H](Cc1ccccc1)C(=O)N[C@@H](CCCNC(=N)N)C(N)=O [Gln595 analog] (Ac-SEVQMDAEFR-NH2),site of cleavage by amyloidin,[5],all the cleavage by amyloidin was at the Met-Asp bond
CC(C)C[C@H](NC(=O)[C@H]1O[C@@H]1C(=O)O)C(=O)NCCCCN=C(N)N [E-64],remaining activity at 1 µg/mL,"[4]; assay conc. 1 ug/ml, 30 min pre-incubation, room temperature, read-out: % Control Activity",119%
same,inhibitory effect on amyloidin,[4]; in words,no inhibitory effect
human amyloidin protease (enzyme),"Specific Activity (area/min/mg), DAEFR area by RP-HPLC",[6],2080 area/min/mg
same,increase in absorbance at 405 nm,[7],0
same,increase in absorbance at 405 nm,[8],0
same,increase in absorbance at 405 nm,[9],0
same,increase in absorbance at 405 nm,[10],0
same,increase in absorbance at 405 nm,[11],0
same,increase in absorbance at 405 nm,[12],0
same,increase in absorbance at 405 nm,[13],0
same,increase in absorbance at 405 nm,[14],0
same,increase in absorbance at 405 nm,[15],0
CC(C)C[C@H](NP(=O)(O)O[C@@H]1O[C@@H](C)[C@H](O)[C@@H](O)[C@H]1O)C(=O)N[C@@H](Cc1c[nH]c2ccccc12)C(=O)O [phosphoramidon],remaining activity at 100 µg/mL,"[4]; assay conc. 0.1 mg/ml, 30 min pre-incubation, room temperature, read-out: % Control Activity",79%
same,inhibitory effect on amyloidin,[4]; in words,only weakly inhibitory
"O=S(=O)(F)Cc1ccccc1 [PMSF, phenylmethylsulfonyl fluoride]",% Control Activity,[4],69%
full-length protein (APP): full-length protein (APP) produced by baculovirus cells transformed with the gene encoding APP,cleavage of full-length APP by amyloidin,[16],did not cleave
CC(=O)N[C@@H](CO)C(=O)N[C@@H](CCC(=O)O)C(=O)N[C@H](C(=O)N[C@@H](CCCCN)C(=O)N[C@@H](C)C(=O)N[C@@H](CC(=O)O)C(=O)N[C@@H](C)C(=O)N[C@@H](CCC(=O)O)C(=O)N[C@@H](Cc1ccccc1)C(=O)N[C@@H](CCCNC(=N)N)C(N)=O)C(C)C [replacement of Met596 by Ala] (Ac-SEVKADAEFR-NH2),site of cleavage by amyloidin,[5],"loss of cleavage at this site, but cleavage shifted to the Lys595-Ala596 bond"
"CSCC[C@H](NC(=O)[C@@H]1CCCN1C(=O)[C@H](C)NC(=O)[C@H](C)NC(=O)CCC(=O)O)C(=O)Nc1ccc([N+](=O)[O-])cc1 [Suc-AAPM-pNA, Suc-Ala-Ala-Pro-Met-pNA] (Suc-AAPM-pNA)",cleavage of p-NA substrate by amyloidin (increase in A405),[1],0
"N=C(N)NCCC[C@H](NC(=O)OCc1ccccc1)C(=O)N[C@@H](CCCCN)C(=O)Nc1ccc([N+](=O)[O-])cc1 [Z-RK-pNA, benzyloxycarbonylarginyl-lysyl-] (Cbz-Arg-Lys-pNA)",cleavage of p-NA substrate by amyloidin (increase in A405),[1],0
α1-PI: general plasma serine proteinase inhibitor,% Control Activity,"[4]; assay conc. 30 ug/ml, 30 min pre-incubation, room temperature",98%
same,inhibitory effect on amyloidin,[4]; in words,"Neither α-1-proteinase inhibitor or α-1-antichymotrypsin, two general plasma serine proteinase inhibitors, had any inhibitory effect"
"CC(=O)N[C@@H](C)C(=O)N[C@@H](CC(=O)O)C(=O)Nc1ccc([N+](=O)[O-])cc1 [Ac-AD-pNA, Acetylalanyl-aspartyl-] (Ac-Ala-Asp-pNA)",cleavage of p-NA substrate by amyloidin (increase in A405),[1],0
"C[C@H](NC(=O)CCC(=O)O)C(=O)N[C@@H](C)C(=O)N1CCC[C@H]1C(=O)N[C@@H](Cc1ccccc1)C(=O)Nc1ccc([N+](=O)[O-])cc1 [Suc-AAPF-pNA, Succinylalanyl-alanyl-prolyl-phenylalanyl-] (Suc-AAPF-pNA)",cleavage of p-NA substrate by amyloidin (increase in A405),[1],0
CC(C)C[C@H](NC(=O)[C@@H](NC(=O)N[C@@H](Cc1ccccc1)C(=O)O)[C@@H]1CCN=C(N)N1)C(=O)N[C@H](C=O)Cc1ccccc1 [chymostatin],remaining activity at 25 µg/mL,[4]; read-out: % Control Activity,77%
"C[C@H](NC(=O)OCc1ccccc1)C(=O)N[C@@H](C)C(=O)Nc1ccc([N+](=O)[O-])cc1 [Z-AA-pNA, benzyloxycarbonylalanyl-alanyl-] (Cbz-Ala-Ala-pNA)",cleavage of p-NA substrate by amyloidin (increase in A405),[1],0
Butyloxycarbonylalanyl-alanyl-aspartyl- (Boc-Ala-Ala-Asp-pNA; SMILES C[C@H](NC(=O)OC(C)(C)C)C(=O)N[C@@H](C)C(=O)N[C@@H](CC(=O)O)C(=O)Nc1ccc([N+](=O)[O-])cc1) [Boc-AAd-Pna],cleavage of p-NA substrate by amyloidin (increase in A405),[1],0
CSCC[C@@H](C=O)NC(=O)[C@H](CC(C)C)NC(=O)[C@H](CC(C)C)NC(C)=O [Calp. Inh. II] (Ac-Leu-Leu-Met-aldehyde),remaining activity at 50 µg/mL,"[4]; assay conc. 50 ug/ml, 30 min pre-incubation, room temperature, read-out: % Control Activity",130%
same,inhibitory effect on amyloidin,[4]; in words,no inhibitory effect
"O=C(O)CN(CCN(CC(=O)O)CC(=O)O)CC(=O)O [EDTA, ethylenediaminetetraacetic acid]",cleavage of APP592-601 by amyloidin,[4],no detectable cleavage
same,inhibitory effect on amyloidin,[4],strongly inhibited
aprotinin,% Control Activity,[4],102%
same,inhibitory effect on amyloidin,[4],nor did aprotinin
B1,percent of Suc-Ala-Ala-Pro-Phe-pNA hydrolysing activity bound to the matrix,[17],95% of this activity had bound to the matrix
